Source: patent US10294202B2, “Pyrrolidinones as herbicides” (FMC Corporation, priority 2013, dated 2019)

Tests used:
[1] = system: kochia; assay: Test A pre-/postemergence herbicide test; type: in vivo, Kochia scoparia
In short: (§1)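 Scoring was visual, relative to untreated controls, on a 0–100 scale after about 10 greenhouse days. Preemergence treatment used a directed soil spray over seeded loam/sand; postemergence treatment targeted one- to two-leaf plants of 2–10 cm.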

[2] = system: galium; assay: Test A postemergence herbicide test; type: in vivo, Galium aparine
In short: (§2)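 Injury was rated visually about 10 days after treatment on a 0 (no effect) to 100 (complete control) scale, compared with untreated plants. Test chemicals were sprayed postemergence onto greenhouse plants 2–10 cm high at one to two leaves, grown in a loam–sand blend.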

[3] = system: rice; assay: Test C flooded paddy test; type: in vivo, Oryza sativa; details: Flood
In short: (§3)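 2-leaf stage; flood 3 cm over soil; compound into paddy water; depth held; greenhouse 13–15 d; visual % control vs untreated (0 = none, 100 = complete); "-" = not tested.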

[4] = system: ryegrass, Italian; assay: Test A pre-/postemergence herbicide test; type: in vivo, Lolium multiflorum
In short: as §1

[5] = system: sedge, umbrella; assay: Test C flooded paddy test; type: in vivo, Cyperus difformis; details: Flood
In short: as §3

[6] = system: kochia; assay: Test C pre-/postemergence herbicide test; type: in vivo, Kochia scoparia; details: Postemergence
In short: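 Response scores range from 0, meaning no effect, to 100, meaning complete control, assigned visually by comparison with controls roughly two weeks (13 to 15 days) after spraying. Applications were made preemergence to seeded loam–sand soil and postemergence to 1- to 4-leaf plants.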

[7] = system: blackgrass; assay: Test A postemergence herbicide test; type: in vivo, Alopecurus myosuroides
In short: as §2

[8] = system: barnyardgrass; assay: Test C flooded paddy test; type: in vivo, Echinochloa crus-galli; details: Flood
In short: as §3

[9] = system: ragweed; assay: Test A pre-/postemergence herbicide test; type: in vivo, Ambrosia elatior
In short: as §1

[10] = 125 g ai/ha, visual rating, 0 to 100 scale, 0 no effect, 100 complete control, approximately 10 days, preemergence
[11] = Postemergence, 125 g ai/ha, 0 to 100 scale, 0 is no effect, 100 is complete control
[12] = preemergence, 500 g ai/ha, 0 to 100 scale, 0 is no effect and 100 is complete control
[13] = 125 g ai/ha, 0 to 100 scale, 0 is no effect, 100 is complete control
[14] = 31 g ai/ha, scale of 0 to 100 where 0 is no effect and 100 is complete control, 13 to 15 days
[15] = 62 g ai/ha, scale of 0 to 100 where 0 is no effect and 100 is complete control, 13 to 15 days
[16] = 125 g ai/ha, scale of 0 to 100 where 0 is no effect and 100 is complete control, 13 to 15 days
[17] = 250 g ai/ha, scale of 0 to 100 where 0 is no effect and 100 is complete control, 13 to 15 days
[18] = 31 g ai/ha, scale 0 to 100 (0 no effect, 100 complete control)
[19] = 62 g ai/ha, scale 0 (no effect) to 100 (complete control)
[20] = 125 g ai/ha, scale 0 to 100 (0 no effect, 100 complete control)
[21] = 250 g ai/ha, scale 0 to 100 (0 no effect, 100 complete control)
[22] = Postemergence, 500 g ai/ha, 0 to 100 scale (0 no effect, 100 complete control)
[23] = Preemergence, 125 g ai/ha, 0 to 100 scale where 0 is no effect and 100 is complete control
[24] = 500 g ai/ha, 0 to 100 scale (0 no effect, 100 complete control)
[25] = Postemergence, 125 g ai/ha, visual rating on 0 to 100 scale (0 no effect, 100 complete control), approx. 10 days

| SMILES | Plant response rating, Kochia [1, 10] | Plant response rating, Kochia [1, 11] | Kochia plant response rating (0 to 100 scale, 0 is no effect, 100 is complete control) ([1]; Postemergence, 500 g ai/ha) | Plant response rating, Kochia [1, 12] | Plant response rating, Galium [2, 13] | Galium plant response rating (0 to 100 scale, 0 is no effect, 100 is complete control) ([2]; 500 g ai/ha) | Plant response rating, Rice [3, 15] | Plant response rating, Rice [3, 16] | Plant response rating, Rice [3, 17] | Plant response rating, Ryegrass, Italian [4, 12] | Plant response rating, Sedge, Umbrella [5, 16] | Plant response rating, Sedge, Umbrella [5, 17] | Plant response rating, Kochia [6, 18] | Plant response rating, Kochia [6, 19] | Plant response rating, Kochia [6, 20] | Plant response rating, Kochia [6, 21] | Plant response rating, Blackgrass [7, 13] | Plant response rating, Barnyardgrass [8, 16] | Plant response rating, Barnyardgrass [8, 17] | Plant response rating, Ragweed [9, 12] | also measured |
| --- | --- | --- | --- | --- | --- | --- | --- | --- | --- | --- | --- | --- | --- | --- | --- | --- | --- | --- | --- | --- | --- |
| O=C1NCC(c2cccc(OC(F)F)c2)C1C(=O)Nc1ccccc1F (centres unmarked) [Compound 223] | 30 | 50 | 70 | 80 | 50 | 60 | 0 | 0 | 0 | 60 | 0 | 0 | 0 | 5 | 30 | 60 | 60 | 0 | 0 | 50 | Plant response rating, Rice [3, 14]: 0; Plant response rating, Ryegrass, Italian [4, 10]: 30; Plant response rating, Ryegrass, Italian [4, 11]: 0; Ryegrass, Italian plant response rating (0 to 100 scale, 0 is no effect, 100 is complete control) ([4]; Postemergence, 500 g ai/ha): 40; Plant response rating, Sedge, Umbrella [5, 14]: 0; Plant response rating, Sedge, Umbrella [5, 15]: 0; Blackgrass plant response rating (0 to 100 scale, 0 is no effect, 100 is complete control) ([7]; 500 g ai/ha): 70; Plant response rating, Barnyardgrass [8, 14]: 0; Plant response rating, Barnyardgrass [8, 15]: 0; Plant response rating, Ragweed [9, 10]: 30; Plant response rating, Ragweed [9, 11]: 0; Ragweed plant response rating (0 to 100 scale, 0 is no effect, 100 is complete control) ([9]; Postemergence, 500 g ai/ha): 30 |
| O=C1NCC(c2cccc(C(F)(F)F)c2)C1C(=O)Nc1ccc(F)cc1F (racemic) [Compound 207] | 20 | 0 | 0 | 30 | 0 | 50 | – | 15 | 15 | 40 | 0 | 0 | 0 | 0 | 0 | 30 | 70 | 40 | 60 | 20 | Plant response rating, Rice ([3]; 500 g ai/ha, scale 0 to 100): 15; Plant response rating, Rice ([3]; 1000 g ai/ha, scale 0 to 100): 15; Plant response rating, Ryegrass, Italian [4, 10]: 20; Plant response rating, Ryegrass, Italian [4, 11]: 0; Ryegrass, Italian plant response rating (0 to 100 scale, 0 is no effect, 100 is complete control) ([4]; Postemergence, 500 g ai/ha): 50; Plant response rating, Sedge, Umbrella ([5]; 500 g ai/ha, scale 0 to 100): 0; Plant response rating, Sedge, Umbrella ([5]; 1000 g ai/ha, scale 0 to 100): 0; Blackgrass plant response rating (0 to 100 scale, 0 is no effect, 100 is complete control) ([7]; 500 g ai/ha): 70; Plant response rating, Barnyardgrass ([8]; 500 g ai/ha, scale 0 to 100): 70; Plant response rating, Barnyardgrass ([8]; 1000 g ai/ha, scale 0 to 100): 75; Plant response rating, Ragweed [9, 10]: 0; Plant response rating, Ragweed [9, 11]: 0; Ragweed plant response rating (0 to 100 scale, 0 is no effect, 100 is complete control) ([9]; Postemergence, 500 g ai/ha): 0 |
| O=C1NCC(c2cccc(Cl)c2)C1C(=O)Nc1cccc(F)c1F (racemic) [Compound 275] | – | 50 | – | 80 | 60 | – | 0 | 0 | 10 | 60 | 0 | 0 | 70 | 85 | 85 | 85 | 50 | 45 | 60 | 40 | Plant response rating, Kochia [1, 22]: 80; Plant response rating, Kochia [1, 23]: 60; Plant response rating, Galium [2, 24]: 70; Plant response rating, Rice ([3]; 500 g ai/ha, scale 0 to 100): 10; Plant response rating, Ryegrass, Italian [4, 25]: 30; Plant response rating, Ryegrass, Italian [4, 22]: 50; Plant response rating, Ryegrass, Italian [4, 23]: 30; Plant response rating, Sedge, Umbrella [5, 15]: 0; Plant response rating, Sedge, Umbrella ([5]; 500 g ai/ha, scale 0 to 100): 0; Plant response rating, Blackgrass [7, 24]: 60; Plant response rating, Barnyardgrass [8, 15]: 35; Plant response rating, Barnyardgrass ([8]; 500 g ai/ha, scale 0 to 100): 70; Plant response rating, Ragweed [9, 25]: 30; Plant response rating, Ragweed [9, 22]: 30; Plant response rating, Ragweed [9, 23]: 20 |
| O=C1NCC(c2ccc(C(F)(F)F)cc2)C1C(=O)Nc1ccc(F)c(F)c1F (centres unmarked) [Compound 232] | 70 | 80 | 90 | 80 | 60 | 60 | 0 | 0 | 15 | 80 | 0 | 0 | 60 | 70 | 70 | 75 | 50 | 40 | 60 | 90 | Plant response rating, Rice [3, 14]: 0; Plant response rating, Ryegrass, Italian [4, 10]: 40; Plant response rating, Ryegrass, Italian [4, 11]: 40; Ryegrass, Italian plant response rating (0 to 100 scale, 0 is no effect, 100 is complete control) ([4]; Postemergence, 500 g ai/ha): 50; Plant response rating, Sedge, Umbrella [5, 14]: 0; Plant response rating, Sedge, Umbrella [5, 15]: 0; Blackgrass plant response rating (0 to 100 scale, 0 is no effect, 100 is complete control) ([7]; 500 g ai/ha): 50; Plant response rating, Barnyardgrass [8, 14]: 0; Plant response rating, Barnyardgrass [8, 15]: 30; Plant response rating, Ragweed [9, 10]: 30; Plant response rating, Ragweed [9, 11]: 20; Ragweed plant response rating (0 to 100 scale, 0 is no effect, 100 is complete control) ([9]; Postemergence, 500 g ai/ha): 50 |
